Data: paper PMC4303146, “Investigation of cyanine dyes for in vivo optical imaging of altered mitochondrial membrane potential in tumors” (Cancer Medicine, 2014)

Key:
[1] = Photophysical properties (fluorescence spectroscopy, quantum yield); format: physicochemical
Procedure: IC7-1 derivatives were dissolved in chloroform or 5% FBS to give a concentration of 1 μmol/L for fluorescence spectroscopy analysis. Excitation spectra were measured following the emission at 850 nm, and emission spectra were measured following excitation at 823 nm. Quantum yields were determined using a Fluorolog-3 spectrofluorometer equipped with an integrating sphere.

HeLa cells [2] = experiment: Cellular localization study (fluorescence microscopy with NAO mitochondria marker); format: cell-based, human; conditions: 1 μmol/L, 60 min, NAO 100 nmol/L
Procedure: HeLa cells (3 × 10^5 cells) were cultured in a poly-L-lysine coated glass bottom dish for 24 h at 37°C before use. Cells were washed twice with phosphate-buffered saline (PBS) and then incubated with the IC7-1 derivative dissolved in dimethyl sulfoxide (DMSO) (1 μmol/L final concentration) in DMEM supplemented with 5% FBS and 1% penicillin and streptomycin for 60 min. To determine the dye localization, mitochondria were labeled with NAO (100 nmol/L final concentration) for 20 min before completion of the incubation with IC7-1 derivative. Next, the cells were washed twice each with DMEM and PBS. Cells were viewed with a fluorescence microscope under a 100× oil-immersion objective lens. MetaMorph® software (Molecular Devices, LLC, Sunnyvale, CA) was used for imaging analysis.

BSA = BSA (Bos taurus, UniProt P02769); experiment: Association constants of IC7-1 derivatives to albumin (fluorimetric titration); format: binding, bovine; conditions: dye 1 µM, BSA 0-1.0 µM, 30 min; read-out: Ka, association constant of dye-albumin complex (converted)
Chain of BSA (P02769 25-607): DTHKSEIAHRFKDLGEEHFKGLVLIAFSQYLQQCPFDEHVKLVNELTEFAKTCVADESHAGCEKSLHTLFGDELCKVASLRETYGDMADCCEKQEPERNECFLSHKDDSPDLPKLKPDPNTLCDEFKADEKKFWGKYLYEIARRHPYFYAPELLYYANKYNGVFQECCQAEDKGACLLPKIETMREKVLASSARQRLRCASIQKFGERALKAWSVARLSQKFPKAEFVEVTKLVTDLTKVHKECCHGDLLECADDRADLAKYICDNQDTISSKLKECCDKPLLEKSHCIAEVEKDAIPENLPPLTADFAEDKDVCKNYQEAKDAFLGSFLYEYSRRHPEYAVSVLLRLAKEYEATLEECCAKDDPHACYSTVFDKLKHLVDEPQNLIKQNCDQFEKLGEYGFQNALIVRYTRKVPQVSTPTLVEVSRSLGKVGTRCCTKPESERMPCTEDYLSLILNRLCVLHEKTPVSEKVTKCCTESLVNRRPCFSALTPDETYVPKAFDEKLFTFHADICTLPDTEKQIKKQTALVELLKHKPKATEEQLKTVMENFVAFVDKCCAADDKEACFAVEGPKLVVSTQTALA
Procedure: Binding studies of IC7-1 derivatives to albumin were conducted as reported previously (Beckford G et al. The solvatochromic effects of side chain substitution on the binding interaction of novel tricarbocyanine dyes with human serum albumin. Talanta 2012;92: 45-52). Briefly, IC7-1 derivatives (1 µM final concentration) were incubated with BSA (0, 0.4, 0.6, 0.8, and 1.0 µM) for 30 min to equilibrate. The fluorescence intensity was measured following the excitation at 823 nm and the emission from 840 to 900 nm. The interaction between dye D and albumin A can be expressed by Eq. 1:
The association constant for the dye-albumin complex formation can be expressed by Eq. 2:
Then, the association constant Ka of the dye-albumin complex was calculated from the data for the fluorimetric titration of the dye with albumin using Eq. 3:
1/ΔF = 1/k[D] + (1/(k[D]Ka))·(1/[A]) (3)
where k is a constant depending on the instrumentation and quantum efficiency of the process.
Therefore, a plot of the reciprocal of ΔF versus the reciprocal of albumin concentration gives a straight line. The association constant was calculated by dividing the intercept by the slope of the line.

HeLa cell xenograft = experiment: In vivo imaging study in HeLa cell xenograft mice; conditions: for Tumor fluorescence intensity group from ROI analysis / Liver accumulation and excretion: 10 nmol i.v.; for Liver accumulation and excretion: ventral imaging 3-72 h
Procedure: Animal experiments were conducted in accordance with institutional guidelines and were approved by the Kyoto University Animal Care Committee. […] HeLa cells (2 × 10^6 cells in 100 μL of PBS) were subcutaneously inoculated into the right hind legs of mice. Fourteen days after implantation, mice were used for the imaging study.
Clairvivo® OPT measurement and display software ver. 2.6.0.0. (SHIMADZU Co.) was used for imaging analysis.
Exposure time was 5s for the scan at 3 h, and 3s for the other scans. Clairvivo® OPT measurement and display software ver. 2.6.0.0. (SHIMADZU Co., Kyoto, Japan) was used for imaging analysis.

HeLa cells [3] = experiment: Cellular uptake study with uncoupler CCCP; format: cell-based, human; conditions: dye 1 μmol/L, 60 min, CCCP 0-25 μmol/L
Procedure: A cellular uptake study was conducted as reported previously. Briefly, the buffer solution (pH 7.4) for the cellular uptake study was composed of NaCl ([…]), KCl (5.4 mmol/L), CaCl2 (1.2 mmol/L), MgSO4 (0.8 mmol/L), NaH2PO4 (0.8 mmol/L), dextrose (5.6 mmol/L), and 4-(2-hydroxyethyl)-1-piperazineethanesulfonic acid) (5 mmol/L). HeLa cells (1 × 10^6 cells/mL buffer solution) were incubated with carbonyl […] m-chlorophenylhydrazone (CCCP; 0, 0.1, 0.25, 0.5, 0.75, 1, 2.5, 5, 10, and 25 μmol/L) for 5 min at 37°C in 1.5 mL microtubes, followed by the addition of the IC7-1 derivative (1 μmol/L final concentration). After a 60-min incubation with the IC7-1 derivative, the cells were washed twice and resuspended with buffer solution. The fluorescence intensity was measured following the excitation at 823 nm and the emission from 840 to 900 nm, and the normalized intensity (%) was calculated as a percentage of fluorescence intensity obtained with CCCP untreated (0 μmol/L) cells.
The buffer solution (pH 7.4) for the cellular uptake study was composed of NaCl (145 mM), KCl (5.4 mM), CaCl2 (1.2 mM), MgSO4 (0.8 mM), NaH2PO4 (0.8 mM), dextrose (5.6 mM), and HEPES (5 mM). The HeLa cells (1 x 10^6 cells / ml buffer solution) were incubated with an uncoupler (CCCP; 0, 0.1, 0.25, 0.5, 0.75, 1, 2.5, 5, 10, and 25 µM) for 5 min at 37 °C in 1.5 mL microtubes, followed by the addition of IR-780 or IC7-1-Bu (1 µM final concentration) After a 60 min incubation with the dyes, the cells were washed twice and resuspended with buffer solution. Fluorescence intensity was measured following the excitation at 763 nm and the emission from 780 to 880 nm for IR-780, and the excitation at 823 nm and the emission from 840 to 900 nm for IC7-1-Bu. The normalized intensity (%) was calculated as a percentage of fluorescence intensity obtained with CCCP untreated (0 µM) cells.

[4] = molecular target: T1, albumin-binding site I (warfarin-binding site) (Bos taurus, UniProt P02769); experiment: Protein-binding assay with competitive inhibitors in 5% FBS; format: in vitro ADME, bovine; conditions: 5% FBS, inhibitor 189 μmol/L, dye 1 μmol/L
T1 construct: incubated for 30 min in PBS (pH 7.4) containing 5% DMSO and 5% FBS; from tissue; host or cells: fetal bovine serum (5% in PBS)
T1 sequence (P02769 25-607): as above
Procedure: A protein-binding assay was conducted as reported previously. Briefly, warfarin, ibuprofen, digoxin, and quinidine were used as competitive inhibitors of albumin-binding sites I, II, III, and […], respectively. The inhibitors (0 and 189 μmol/L) were incubated for 30 min in PBS (pH 7.4) containing 5% DMSO and 5% FBS at room temperature. Immediately after the addition of the IC7-1 derivative (1 μmol/L final concentration), the fluorescence intensity was measured following the excitation at 823 nm and the emission from 840 to 900 nm. The normalized intensity (%) was calculated as a percentage of fluorescence intensity obtained from an inhibitor untreated sample.

SMILES	Φ, quantum yield ([1]; 5% FBS)	ε, extinction coefficient ([1]; 5% FBS)	emmax, maximum emission wavelength ([1]; 5% FBS, 1 μmol/L)	exmax, maximum excitation wavelength ([1]; 5% FBS, 1 μmol/L)	Φ, quantum yield ([1]; CHCl3)	ε, extinction coefficient ([1]; CHCl3)	emmax, maximum emission wavelength ([1]; CHCl3, 1 μmol/L)	exmax, maximum excitation wavelength ([1]; CHCl3, 1 μmol/L)	Kd (BSA)	Normalized fluorescence intensity with warfarin (albumin site I inhibitor) [4]	Subcellular localization of NIR fluorescence (HeLa cells [2])	Tumor fluorescence intensity group from ROI analysis (HeLa cell xenograft)	Tumor depiction in fluorescence images (HeLa cell xenograft; 10 nmol i.v., 24, 48 and 72 h)	Liver accumulation and excretion (HeLa cell xenograft)	Normalized cellular fluorescence intensity under CCCP treatment (HeLa cells [3])	Fluorescence intensity at the tumor region (HeLa cell xenograft; 10 nmol i.v., 24, 48 and 72 h)
CCN1/C(=C/C=C2\CCCC(/C=C/C3=[N+](CC)c4ccc5ccccc5c4C3(C)C)=C2Cl)C(C)(C)c2c1ccc1ccccc21 [IC7-1-Et, 3-Ethyl-2-(2-{3-[2-(3-ethyl-1,1-dimethyl-1,3-dihydro-benz[e]indol-2-ylidene)-ethylidene]-2-chloro-cyclohex-1-enyl}-vinyl)-1,1-dimethyl-1H-benz[e]indolium]	0.04	130000 mol/L/cm	847 nm	823 nm	0.06	330000 mol/L/cm	842 nm	823 nm	556 nM		colocalized fluorescence with NAO	negligible intensity group	negligible signals from the whole body	accumulated in the liver, and were quickly excreted		
CCCCCCN1/C(=C/C=C2\CCCC(/C=C/C3=[N+](CCCCCC)c4ccc5ccccc5c4C3(C)C)=C2Cl)C(C)(C)c2c1ccc1ccccc21 [IC7-1-He, 3-Hexyl-2-(2-{3-[2-(3-hexyl-1,1-dimethyl-1,3-dihydro-benz[e]indol-2-ylidene)-ethylidene]-2-chloro-cyclohex-1-enyl}-vinyl)-1,1-dimethyl-1H-benz[e]indolium]	0.03	60000 mol/L/cm	841 nm	823 nm	0.06	330000 mol/L/cm	845 nm	823 nm	833 nM		weak or negligible fluorescence in the NIR region	negligible intensity group	negligible signals from the whole body		reduced cellular fluorescence from treatment with a low CCCP concentration	weak at all time points
CN1/C(=C/C=C2\CCCC(/C=C/C3=[N+](C)c4ccc5ccccc5c4C3(C)C)=C2Cl)C(C)(C)c2c1ccc1ccccc21 [IC7-1-Me, 3-Methyl-2-(2-{3-[2-(3-methyl-1,1-dimethyl-1,3-dihydro-benz[e]indol-2-ylidene)-ethylidene]-2-chloro-cyclohex-1-enyl}-vinyl)-1,1-dimethyl-1H-benz[e]indolium]	0.04	120000 mol/L/cm	846 nm	823 nm	0.07	330000 mol/L/cm	841 nm	823 nm	769 nM		colocalized fluorescence with NAO	negligible intensity group	negligible signals from the whole body	accumulated in the liver, and were quickly excreted		
CCCN1/C(=C/C=C2\CCCC(/C=C/C3=[N+](CCC)c4ccccc4C3(C)C)=C2Cl)C(C)(C)c2ccccc21.[I-] [IR-780, reference compound]															almost negligible effect of CCCP	

Continued, in another order:

Φ, quantum yield ([1]; 5% FBS)	ε, extinction coefficient ([1]; 5% FBS)	emmax, maximum emission wavelength ([1]; 5% FBS, 1 μmol/L)	exmax, maximum excitation wavelength ([1]; 5% FBS, 1 μmol/L)	Φ, quantum yield ([1]; CHCl3)	ε, extinction coefficient ([1]; CHCl3)	emmax, maximum emission wavelength ([1]; CHCl3, 1 μmol/L)	exmax, maximum excitation wavelength ([1]; CHCl3, 1 μmol/L)	Kd (BSA)	Normalized fluorescence intensity with warfarin (albumin site I inhibitor) [4]	SMILES	Subcellular localization of NIR fluorescence (HeLa cells [2])	Tumor fluorescence intensity group from ROI analysis (HeLa cell xenograft)	Tumor depiction in fluorescence images (HeLa cell xenograft; 10 nmol i.v., 24, 48 and 72 h)	Liver accumulation and excretion (HeLa cell xenograft)	Normalized cellular fluorescence intensity under CCCP treatment (HeLa cells [3])	Fluorescence intensity at the tumor region (HeLa cell xenograft; 10 nmol i.v., 24, 48 and 72 h)
0.03	90000 mol/L/cm	847 nm	823 nm	0.06	330000 mol/L/cm	845 nm	823 nm	625 nM	specifically bound to albumin	CCCCCN1/C(=C/C=C2\CCCC(/C=C/C3=[N+](CCCCC)c4ccc5ccccc5c4C3(C)C)=C2Cl)C(C)(C)c2c1ccc1ccccc21 [IC7-1-Pe, 3-Pentyl-2-(2-{3-[2-(3-pentyl-1,1-dimethyl-1,3-dihydro-benz[e]indol-2-ylidene)-ethylidene]-2-chloro-cyclohex-1-enyl}-vinyl)-1,1-dimethyl-1H-benz[e]indolium]	weak or negligible fluorescence in the NIR region	mild intensity group	Tumors were clearly depicted		reduced cellular fluorescence from treatment with a low CCCP concentration	
0.05	130000 mol/L/cm	843 nm	823 nm	0.07	330000 mol/L/cm	845 nm	823 nm	417 nM	specifically bound to albumin	CCCN1/C(=C/C=C2\CCCC(/C=C/C3=[N+](CCC)c4ccc5ccccc5c4C3(C)C)=C2Cl)C(C)(C)c2c1ccc1ccccc21 [IC7-1-Pr, 3-Propyl-2-(2-{3-[2-(3-propyl-1,1-dimethyl-1,3-dihydro-benz[e]indol-2-ylidene)-ethylidene]-2-chloro-cyclohex-1-enyl}-vinyl)-1,1-dimethyl-1H-benz[e]indolium]	colocalized fluorescence with NAO	mild intensity group	Tumors were clearly depicted		reduced cellular fluorescence from treatment with a low CCCP concentration	
